Experimental findings from PubChem BioAssay (NCI) are described below.

Holding throughout (experiment): DTP human tumour cell line panel, 48 h
Test [1] relates to SK-MEL-2 melanoma.
In test [2] the test system is SK-OV-3 ovarian.
The test system of test [3] is SNB-75 CNS.
The test system of test [4] is OVCAR-3 ovarian.
Test [5] concerns SNB-19 CNS.
Test [6] has as its system RPMI-8226 leukemia.
For test [7], the system named is M14 melanoma.
Test [8] concerns SF-295 CNS.
The test system of test [9] is SF-539 CNS.
Test [10] concerns CAKI-1 renal.

Structures are written as SMILES.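 Where inhibition never reached the appropriate level, the endpoint shown equals the highest concentration tested. Otherwise, values were interpolated linearly from a five-concentration, 48-hour dose response in 96-well plates. Abbreviation: GI50, concentration required for 50% inhibition of growth. At the TGI there is no net growth.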 A value given as a limit tells only on which side of the number the result lay.

In general, GI50 refers to the concentration that inhibits growth by half. One may read the TGI as the concentration at which net growth stops. High values mean lower sensitivity of the cells, low ones greater sensitivity of the cells.

Turning to `O=C(Nc1ccc(F)cc1)Nc1ccc(Br)c(C(F)(F)F)c1`, the GI50 in [1] was 2.38 µM; in test [2], 2.16 µM; in test [3] it was 1.79 µM; in [4], 1.65 µM; in test [5] it was 3.42 µM; in [6], 1.03 µM. The GI50 is 2.29 µM in test [7], 1.39 µM in test [8] and 2.58 µM in test [9]. Besides, the TGI turned out to be 6.19 µM in test [1]; 6.27 µM in [2]; 5.38 µM in test [3]; 11.6 µM in test [4]; 15.6 µM in test [5]; 4.96 µM in test [6]. Also, the total growth inhibition concentration (TGI) in test [7] turned out to be 7.41 µM; in test [8], 5.62 µM; in test [9], 8.43 µM.
Turning to `Cc1cc(C)c(C(=O)O)c(SSc2cc(C)cc(C)c2C(=O)O)c1`, the TGI in [1], in [2], in test [5], in test [8], in test [10] and in [9] was over 100 µM in each case.
On to `C=C1C(=O)O[C@H]2[C@H]1CC/C(COC(=O)CCCc1c[nH]c3ccccc13)=C\CC[C@@]1(C)O[C@@H]21`, for which the GI50 in test [1] is 1.96 µM; in test [2] it was 17.3 µM; in test [3], 12.6 µM; in test [4] it was 1.53 µM; in test [5] it was 2.59 µM; in test [6], 2.31 µM. The GI50 is 1.66 µM in test [7], 5.69 µM in [8] and 1.63 µM in test [9]. Moreover, the TGI in [1] stood at 5.39 µM; in test [2] it was 32.8 µM; in [3] it was 26.6 µM; in test [4] it was 3.02 µM; in test [5], 7.87 µM; in test [6] it was 6.09 µM. For the same molecule, the TGI in test [7] worked out at 3.87 µM; in [8], 19 µM; in [9], 3.07 µM.
Take `C/C(CC(=O)Nc1ccccc1C)=N/NS(=O)(=O)c1ccc(C)cc1`: the TGI in test [1], in [2], in test [3], in test [4], in test [6] and in test [7] was over 100 µM throughout. In addition, the TGI in test [8] and in [9] was over 100 µM throughout.
On to `Cc1nc(/C=C2\C(=O)C=Cc3ccccc32)c(O)o1`, for which the TGI in test [1] was over 100 µM; in [3], 40.4 µM; in test [5], over 100 µM; in test [6], over 100 µM; in [7] it was over 100 µM; in test [8], over 100 µM. This molecule also gave a TGI in test [9] of over 100 µM.
Consider `C=C1C(=O)O[C@H]2[C@H]1CC/C(COC(=O)OC/C1=C/CC[C@@]3(C)O[C@H]3[C@H]3OC(=O)[C@@H](CN(C)C)[C@@H]3CC1)=C\CC[C@@]1(C)O[C@@H]21`, for which the GI50 is 2.27 µM in [1]; 12.8 µM in test [2]; 4.89 µM in test [3]; 0.501 µM in test [4]; 4.67 µM in test [5]; 0.372 µM in test [6]. Moreover, the GI50 in test [7] is 1.54 µM; in test [8], 12.1 µM; in test [9] it was 1.8 µM. For the same molecule, the TGI worked out at 5.88 µM in [1]; 25.4 µM in test [2]; 25.1 µM in test [3]; 1.7 µM in test [4]; 18.3 µM in test [5]; 1.94 µM in [6]. Also, the results for the total growth inhibition concentration (TGI) in test [7], in test [8] and in [9] were 3.35 µM, 24.9 µM and 4.4 µM, respectively.
Consider `C#CC1(O)CCC2[C@@H]3CCc4cc(Oc5nc(F)nc(-c6c7ccccc7c(SCC)n6CCC)n5)ccc4C3CC[C@@]21C` (stereo partly specified), for which the TGI in test [1], in test [2], in [4], in [6], in [7] and in test [8] was over 100 µM each time. Moreover, the TGI in test [9] was over 100 µM.
As for `O=C1CNC(=O)c2[nH]cnc2N1`, the TGI in test [2], in test [3], in test [4], in [5], in test [6] and in test [7] was over 100 µM throughout. For the same molecule, the TGI in test [8] and in test [9] was over 100 µM throughout.
For the molecule `N#C/C(=N\Nc1ccccc1)C(=O)Nc1cc(-c2ccccc2)nn1-c1ccccc1`, the GI50 in test [1] was 2.19 µM; in [4] it was 3.24 µM; in test [5], 3.6 µM; in test [6], 1.8 µM; in test [7], 2.68 µM; in test [8], 3.14 µM. In addition, the GI50 is 2.88 µM in [10] and 3.3 µM in test [9]. Further, the TGI in test [1] is 9.94 µM; in test [4], 33.2 µM; in test [5], over 100 µM; in test [6], 39.2 µM; in test [7], over 100 µM; in test [8], over 100 µM. Moreover, the values for the TGI in test [10] and in [9] were over 100 µM and 19.7 µM, respectively.
